Test results from patent US7943606B2, “Compositions and methods to control abnormal cell growth” (CanCure Laboratories, LLC, priority 2005, dated 2011).

How the values were obtained:
A-431 cells = experiment: Viability of A-431 epidermoid adenocarcinoma cells (MTT assay); assay type: cell-based, human; conditions: 0-200 μM, 72 hours, MTT
Method: (§1) To quantify cell death, around the time when significant and characteristic morphological changes took place, cells were pulse-labeled for 10 minutes with [^3H]thymidine to measure DNA activity as described elsewhere [Tomono, M. and Kiss, Z. (1995), “Ethanol enhances the stimulatory effects of insulin and insulin-like growth factor-I on DNA synthesis in NIH 3T3 fibroblasts,” Biochem. Biophys. Res. Commun. 208, 63-67]. Also, cells were collected as suspensions using trypsin, an established method in cell biology, followed by re-plating of cells in fresh tissue culture medium. If no viable cells were obtained after one week in culture, it meant that the cells at the time of re-plating were dead. Survival values obtained with untreated cells were considered 100%. For the determination of relative number of viable cells after treatments, in most cases the MTT assay was used. This calorimetric assay is based on the ability of living cells, but not dead cells, to reduce 3-(4,5-dimethyl thiazol-2-yl)-2,5-diphenyltetrazolium bromide [Carmichael, J, De Graff, W. G., Gazdar, A. F., Minna, J. D. and Mitchell, J. B. (1987), “Evaluation of tetrazolium-based semi-automated calorimetric assay: Assessment of chemosensitivity testing,” Cancer Res. 47, 936-942]. For this assay, cells were plated in 96-well plates, and the MTT assay was performed both in untreated and treated cell cultures. The MTT assay also was performed at the start of treatments to allow assessment of proliferation rates in the control and treated cell cultures.
(§2) The NIH 3T3 (normal) mouse fibroblast, A431 human epidermoid adenocarcinoma, and MCF-7 human breast cancer cells were cultured in DMEM medium containing 10% FBS. The MEL-28 human melanoma cells were cultured in MEM medium containing 10% FBS. The HT-29 human colon adenocarcinoma cells were cultured in McCoy's 5a medium containing 10% FBS. The A549 human lung carcinoma cells were maintained in Ham's F12K medium containing 10% FBS. Cells were seeded into 96-well plates and treated at ˜70-90% confluency. Two hours before treatments the medium was changed for fresh 10% serum medium, and then the cells were incubated for 72 hours in the presence of 0-200 μM of CCompound1 (●) or CCompound3 (CCDTHT) (▴), as indicated. The MTT assay was used to determine cell viability after treatments. The values, shown in FIGS. 5A-5F and expressed as percent decrease in viability compared to the untreated control cells, are the mean±std. dev. of 8 incubations in one experiment. Similar results were obtained in another experiment.
(§3) NIH3T3, T47D, A-431, HT-29, and MEL-28 cells were cultured as indicated earlier. CaOV-3 human ovarian cancer cells were cultured in DMEM containing 10% FBS. ZR-75-1 human estrogen receptor-positive breast cancer cells were maintained in RPMI 1640 medium supplemented with 10% FBS. HTB-157 human fetal fibroblasts, MEL-24 human malignant melanoma cells, Hep G2 human hepatoblastoma cells, and CaCO-2 human colon adenocarcinoma cells were maintained in Eagles's MEM containing 10% FBS. MB-231 human estrogen receptor-negative breast cancer cells were maintained in Leibovitz's L-15 medium supplemented with 10% FBS. Cells were seeded into 96-well plates and treated at ˜70-90% confluency. Two hours prior to treatments the medium was changed for fresh 10% serum medium, and then the cells were incubated for 10 days in the absence (□) or presence of 50 μM CCDTHT ? or 100 μM CCDTHT (▪). The medium was changed and the cells were re-treated on days 3 and 6. The MTT assay was used to determine cell viability on day 10. The data, shown in FIG. 6, are the mean±std. dev. of 8 incubations in one experiment. (The experiment was repeated twice with similar results).
(§4) NIH 3T3, MEL-28, MEL-24, CaOV-3, ZR-75-1, and T47D cells were cultured as described above. The OVCAR human ovarian cancer cells were cultured in DMEM containing 10% FBS. Cells were seeded into 96-well plates and used at ˜60-80% confluency. […]

[1] = Toxicological studies in mice; assay type: in vivo, mouse; conditions: 200-500 μmole/animal
Method: Accordingly, a well-tolerated dose for CCDTHT in mice is 450 μmole/animal (weighing about 25 g) which corresponds to a dose of 4.6 mg/kg. Therapeutically effective concentrations in humans will exert maximal inhibitory effects on the growth of non-healthy tissues without causing significant toxicity in normal healthy tissues.
Parallel toxicological studies also have been performed with 200-500 μmole/animal doses of the commercially available CCompound1. […] CCompound26, which may have an even better toxicity profile based on in vitro experiments with normal cells, was synthesized much later and has not yet been tested in animal experiments.

MCF-7 cells = experiment: Viability of MCF-7 breast cancer cells; assay type: cell-based, human; conditions: 0-200 μM, 72 hours, MTT
Method: as §1
About 50% confluent cultures of MCF-7 cells, cultured in 12-well plates in Dulbecco's modified Eagle's medium (DMEM) supplemented with 10% FBS, were either untreated (FIG. 3A), or were treated with 100 μM CCDTHT (CCompound3) for 72 hours (FIG. 3B). […] This experiment was repeated three times with similar results. In some experiments, cells from the CCDTHT-treated cultures were seeded into 96-well plates, and the MTT assay was performed 96 hours later to test for viable cells.
as §2
NIH 3T3, AN3CA, HT-29, MEL-28, and MCF-7 cells were cultured as described earlier. Cells were seeded into 96-well plates; when cells were ˜80-90% confluent, the medium was changed for fresh 10% serum-containing medium, followed by incubations for 72 hours in the absence (□) or presence of 100 μM CCDTHT ? , 2 mM ethanolamine (Etn) ? , or 100 μM CCDTHT+2 mM Etn (▪). The MTT assay was used to determine cell viability. […]

NIH 3T3 cells = experiment: Viability of NIH 3T3 normal fibroblasts (MTT assay); assay type: cell-based; conditions: 0-200 μM, 72 hours, MTT
Method: as §1, §2, §3, §4

choline transport = experiment: [14C]choline uptake and metabolism in AN3CA, MCF-7 and MEL-28 cancer cells; assay type: cell-based, human
Method: MEL-28 and MCF-7 cells were cultured in MEM medium supplemented with 10% fetal bovine serum (FBS) and in DMEM medium supplemented with 10% FBS, respectively. The AN3CA human endometrial adenocarcinoma cells were maintained in Eagle's MEM containing 10% FBS. Cancer cells were grown up to confluency in 12-well plates in 10% fetal-bovine serum-containing medium, then incubated in the presence of 1 μCi of [methyl-^14C]choline (bought from Amersham; Piscataway, N.J.) for 2 hours. Cells were first rapidly (within 30 seconds) washed three times with 4 ml of serum-free medium, then extracted with ice-cold methanol. This was followed by the determination of cellular free radiolabeled choline and phosphocholine (PCho) by column chromatography as described earlier [Kiss, Z. and Crilly, K. S. (1995), “Tamoxifen inhibits uptake and metabolism of ethanolamine and choline in multidrug-resistant, but not in drug-sensitive, MCF-7 human breast carcinoma cells,” FEBS Lett. 360, 165-168], and the separation and determination of radiolabeled phosphatidylcholine (PtdCho) by thin layer chromatography as indicated in Kiss [Kiss, Z. (1996), “Direct proof that phorbol ester accelerates the use of choline phosphate for phosphatidylcholine synthesis in intact cells,” Arch. Biochem. Biophys. 335, 191-196].
MCF-7 and MEL-28 cells were cultured as described earlier. The AN3CA human endometrial adenocarcinoma cells were maintained in Eagle's MEM containing 10% FBS. Each cell type was grown in 12-well plates to confluency and then incubated with 1 μCi of [methyl-^14C]choline for 2 hours in the absence (□) or presence of 100 μM CCDTHT ? or 0.5 mM HC-3 (▪), followed by the determination of cellular contents of radiolabeled choline (A), PCho (B) and PtdCho (C), as indicated in FIG. 9. […] Thus, if both CCDTHT and HC-3 influenced cell viability solely via inhibition of choline metabolism, then these agents should similarly affect cell viability, at least at the concentrations used in the choline transport experiment.

[2] = cited from earlier work

Cc1c(OCC(O)C[N+](C)(C)C)cc2c(=O)c3ccccc3sc2c1C.[Cl-] (stereo not shown) [CCcompound1, [3-(3,4-Dimethyl-9-oxo-9H-thioxanthen-2-yloxy)-2-hydroxypropyl]trimethyl-ammonium chloride, reference compound]
decrease in viability, A-431 (A-431 cells): similarly large effects | tolerability [1]: similarly well tolerated | decrease in viability, MCF-7 (MCF-7 cells): similarly large effects | toxic effects in NIH 3T3 (normal) fibroblast cultures (NIH 3T3 cells): none of these compounds exerted major toxic effects

C[N+]1(C)CCOC(O)(c2ccc(-c3ccc(C4(O)C[N+](C)(C)CCO4)cc3)cc2)C1.[Br-].[Br-] (stereo not shown) [HC-3]
inhibitory effects on choline uptake and metabolism (choline, PCho, PtdCho) (choline transport; 100 μM CCDTHT or 0.5 mM HC-3, 2 hours, each cell line): comparably strong inhibitory effects | inhibition of choline transport (choline transport; 0.1 mM): 20-25%

B1: PALP: human placental alkaline phosphatase, highly purified from commercial (Sigma-Aldrich) PALP (protein, UniProt P05187 23-506, looked up)
Alkaline phosphatase, …: IIPVEEENPDFWNREAAEALGAAKKLQPAQTAAKNLIIFLGDGMGVSTVTAARILKGQKKDKLGPEIPLAMDRFPYVALSKTYNVDKHVPDSGATATAYLCGVKGNFQTIGLSAAARFNQCNTTRGNEVISVMNRAKKAGKSVGVVTTTRVQHASPAGTYAHTVNRNWYSDADVPASARQEGCQDIATQLISNMDIDVILGGGRKYMFRMGTPDPEYPDDYSQGGTRLDGKNLVQEWLAKRQGARYVWNRTELMQASLDPSVTHLMGLFEPGDMKYEIHRDSTLDPSLMEMTEAALRLLSRNPRGFFLFVEGGRIDHGHHESRAYRALTETIMFDDAIERAGQLTSEEDTLSLVTADHSHVFSFGGYPLRGSSIFGLAPGKARDRKAYTVLLYGNGPGYVLKDGARPDVTESESGSPEYRQQSAVPLDEETHAGEDVAVFARGPQAHLVHGVQEQTFIAHVMAFAACLEPYTACDLAPPAGTTD
half-life time [2]: 120 to 140 h
